Test results from PubChem BioAssay AID1963863 (Molecular Pharmacology Branch, DTP, NCI, 2024).

Tested on: 931267-113-T-J1-PDC KRAS spheroid with HUVEC/MSC, viability
Experiment: Anticancer human tumor 931267-113-T-J1-PDC patient-derived colon adenocarcinoma cell line growth inhibition [KRAS2]
Settings: for IC50: curve of first compound; for viability, T/C: stronger effect = lower value
Outline: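 Combination screen of spheroid viability in tumor-cell co-cultures with endothelial (HUVEC) and mesenchymal stem cell stroma. Each agent was tested in half-log dilutions, topping at clinical Cmax or at 10 microM without a known Cmax.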

[1] = second compound 0.1 µM, first compound 0.0316 µM
[2] = second compound 0.1 µM, first compound 0.1 µM
[3] = second compound 0.1 µM, first compound 0.316 µM
[4] = second compound 0.1 µM, first compound 1 µM
[5] = second compound 0.1 µM, first compound 3.16 µM
[6] = second compound 0.1 µM, first compound 10 µM
[7] = second compound 0.316 µM, first compound 0.0316 µM
[8] = second compound 0.316 µM, first compound 0.1 µM
[9] = second compound 0.316 µM, first compound 0.316 µM
[10] = second compound 0.316 µM, first compound 1 µM
[11] = second compound 0.316 µM, first compound 3.16 µM
[12] = second compound 0.316 µM, first compound 10 µM
[13] = second compound 1 µM, first compound 0.0316 µM
[14] = second compound 1 µM, first compound 0.1 µM
[15] = second compound 1 µM, first compound 0.316 µM
[16] = second compound 1 µM, first compound 1 µM
[17] = second compound 1 µM, first compound 3.16 µM
[18] = second compound 1 µM, first compound 10 µM
[19] = second compound 3.16 µM, first compound 0.0316 µM
[20] = second compound 3.16 µM, first compound 0.1 µM
[21] = second compound 3.16 µM, first compound 0.316 µM
[22] = second compound 3.16 µM, first compound 1 µM
[23] = second compound 3.16 µM, first compound 3.16 µM
[24] = second compound 3.16 µM, first compound 10 µM
[25] = second compound 10 µM, first compound 0.0316 µM
[26] = second compound 10 µM, first compound 0.1 µM
[27] = second compound 10 µM, first compound 0.316 µM
[28] = second compound 10 µM, first compound 1 µM
[29] = second compound 10 µM, first compound 3.16 µM
[30] = second compound 10 µM, first compound 10 µM
[31] = second compound 0.1 µM, first compound 0.01 µM
[32] = second compound 0.316 µM, first compound 0.01 µM
[33] = second compound 1 µM, first compound 0.01 µM
[34] = second compound 3.16 µM, first compound 0.01 µM
[35] = second compound 10 µM, first compound 0.01 µM
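Note: compound exposure lasted 7 days before the readout.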
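Throughout, for viability, T/C: 100% = DMSO vehicle control viability.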

Row | SMILES | IC50 (second compound 0.1 µM) [nM] | IC50 (second compound 0.316 µM) [nM] | IC50 (second compound 1 µM) [nM] | IC50 (second compound 3.16 µM) [nM] | IC50 (second compound 10 µM) [nM] | viability, T/C [1] [%] | viability, T/C [2] [%] | viability, T/C [3] [%] | viability, T/C [4] [%] | viability, T/C [7] [%] | viability, T/C [8] [%] | viability, T/C [9] [%] | viability, T/C [10] [%] | viability, T/C [13] [%] | viability, T/C [14] [%] | viability, T/C [15] [%] | viability, T/C [16] [%] | viability, T/C [19] [%] | viability, T/C [20] [%] | viability, T/C [21] [%] | other results
1 | CC(C)NCC(C(=O)N1CCN(c2ncnc3c2C(C)CC3O)CC1)c1ccc(Cl)cc1 (stereo not given) + CC1OCC2(CCN(c3cnc(Sc4ccnc(N)c4Cl)c(N)n3)CC2)C1N | 3560 | 3720 | 5160 | 1850 | 2270 | 78.8 | 71.7 | 87 | 64.4 | 86.4 | 73.5 | 81.7 | 75.2 | 95 | 56.9 | 75.5 | 59.4 | 78.2 | 77.3 | 74.4 | viability, T/C [5]: 53.3%; viability, T/C [6]: 37.3%; viability, T/C [11]: 53%; viability, T/C [12]: 32.2%; viability, T/C [17]: 63.7%; viability, T/C [18]: 39%; viability, T/C [22]: 56.3%; viability, T/C [23]: 44.6%; viability, T/C [24]: 35%; viability, T/C [25]: 73.8%; viability, T/C [26]: 67.9%; viability, T/C [27]: 76.7%; viability, T/C [28]: 52.8%; viability, T/C [29]: 48.8%; viability, T/C [30]: 22.5%
2 | CC1COCCN1c1cc(-c2ccnn2C)c2ccnc(-c3ccn[nH]3)c2n1 (stereo not given) + CC1OCC2(CCN(c3cnc(Sc4ccnc(N)c4Cl)c(N)n3)CC2)C1N | 42.4 | 45.3 | 44.3 | 33.2 | 59.9 | 57.3 | 28.9 | 16.6 | 16.9 | 63.4 | 20.6 | 15.6 | 19 | 58.5 | 29.6 | 18.1 | 18.5 | 50.4 | 29.3 | 16.1 | viability, T/C [31]: 92.3%; viability, T/C [5]: 19.5%; viability, T/C [32]: 81.2%; viability, T/C [11]: 18.6%; viability, T/C [33]: 91.1%; viability, T/C [17]: 13.6%; viability, T/C [34]: 80.6%; viability, T/C [22]: 15.4%; viability, T/C [23]: 18.4%; viability, T/C [35]: 86.9%; viability, T/C [25]: 80.5%; viability, T/C [26]: 25.6%; viability, T/C [27]: 14.4%; viability, T/C [28]: 13.9%; viability, T/C [29]: 15.6%
3 | CCN1CCN(Cc2ccc(Nc3ncc(F)c(-c4cc(F)c5nc(C)n(C(C)C)c5c4)n3)nc2)CC1 + CC1OCC2(CCN(c3cnc(Sc4ccnc(N)c4Cl)c(N)n3)CC2)C1N | 27.3 | 32.8 | 41.2 | 68.8 | 201 | 43.5 | 51.4 | 53.7 | 36.9 | 50.3 | 43.3 | 45.1 | 37.5 | 53.1 | 41.4 | 42 | 35.3 | 54.4 | 43.6 | 40.8 | viability, T/C (second compound 0.1 µM, first compound 0.00316 µM): 75.4%; viability, T/C [31]: 58.2%; viability, T/C (second compound 0.316 µM, first compound 0.00316 µM): 63%; viability, T/C [32]: 91.7%; viability, T/C (second compound 1 µM, first compound 0.00316 µM): 69.5%; viability, T/C [33]: 82%; viability, T/C (second compound 3.16 µM, first compound 0.00316 µM): 71.5%; viability, T/C [34]: 70.2%; viability, T/C [22]: 23.8%; viability, T/C (second compound 10 µM, first compound 0.00316 µM): 70.6%; viability, T/C [35]: 79.1%; viability, T/C [25]: 52.9%; viability, T/C [26]: 58.7%; viability, T/C [27]: 49%; viability, T/C [28]: 9.83%
4 | CCNC(=O)CC1N=C(c2ccc(Cl)cc2)c2cc(OC)ccc2-n2c(C)nnc21 (stereo not given) + CC1OCC2(CCN(c3cnc(Sc4ccnc(N)c4Cl)c(N)n3)CC2)C1N | 536 | 316 | 468 | 586 | 563 | 80.7 | 90.4 | 51.9 | 46.6 | 80.4 | 60.5 | 58.7 | 27.4 | 69.7 | 68.5 | 51.5 | 40.7 | 78.1 | 59.7 | 70.8 | viability, T/C [5]: 30.4%; viability, T/C [6]: 27.6%; viability, T/C [11]: 34.6%; viability, T/C [12]: 21.6%; viability, T/C [17]: 31%; viability, T/C [18]: 15.8%; viability, T/C [22]: 33%; viability, T/C [23]: 22.1%; viability, T/C [24]: 13.4%; viability, T/C [25]: 87.2%; viability, T/C [26]: 73.4%; viability, T/C [27]: 60.3%; viability, T/C [28]: 40.5%; viability, T/C [29]: 25.8%; viability, T/C [30]: 14.2%
5 | Cn1nccc1Nc1nccc(-c2cc3c(s2)C(C)(C)N(CCN2CCOCC2)C3=O)n1 + CC1OCC2(CCN(c3cnc(Sc4ccnc(N)c4Cl)c(N)n3)CC2)C1N | 362 | 317 | 203 | 218 | 275 | 79.4 | 86.3 | 48.3 | 25.2 | 70.6 | 76.3 | 46 | 22.8 | 72.8 | 55.5 | 47.5 | 18.1 | 76.4 | 60.6 | 45.8 | viability, T/C [5]: 7.4%; viability, T/C [6]: 2.95%; viability, T/C [11]: 4.01%; viability, T/C [12]: 2.65%; viability, T/C [17]: 4.05%; viability, T/C [18]: 2.39%; viability, T/C [22]: 8.81%; viability, T/C [23]: 4.98%; viability, T/C [24]: 2.71%; viability, T/C [25]: 72.4%; viability, T/C [26]: 71.6%; viability, T/C [27]: 47%; viability, T/C [28]: 3.56%; viability, T/C [29]: 2.05%; viability, T/C [30]: 2.15%
6 | CC(=O)OC12COC1CC(O)C1(C)C(=O)C(O)C3=C(C)C(OC(=O)C(O)C(NC(=O)OC(C)(C)C)c4ccccc4)CC(O)(C(OC(=O)c4ccccc4)C21)C3(C)C (stereo not given) + CNCc1ccccc1-c1csc(C(C)Nc2nc(C)nc3cc(OC)c(OC)cc23)c1 | > 3160 | > 3160 | > 3160 | < 10 | < 10 | 99.3 | 109 | 98.9 | 82 | 110 | 89.7 | 96.4 | 101 | 105 | 91.3 | 111 | 89.7 | 102 | 0.55 | 0.5 | viability, T/C [31]: 88.2%; viability, T/C [5]: 87.8%; viability, T/C [32]: 109%; viability, T/C [11]: 113%; viability, T/C [33]: 106%; viability, T/C [17]: 77.4%; viability, T/C [34]: 0.73%; viability, T/C [22]: 0.41%; viability, T/C [23]: 105%; viability, T/C [35]: 0.33%; viability, T/C [25]: 0.34%; viability, T/C [26]: 0.31%; viability, T/C [27]: 0.36%; viability, T/C [28]: 0.18%; viability, T/C [29]: 0.93%
